{"source": "patent US20220000117A1", "about": "“METHOD FOR CONTROLLING DISEASES IN SMALL GRAIN CEREALS, SEED OF SMALL GRAIN CEREALS, AND METHOD FOR SUPPRESSING LODGING DAMAGE IN SMALL GRAIN CEREALS” (KUMIAI CHEMICAL INDUSTRY CO., LTD., priority 2019, published 2022)", "key": {"wheat (variety: Apache)": {"tested_on": "wheat (variety: Apache)", "experiment": "Test Example 8: emergence rate of wheat seed", "format": "in vivo", "experimental": "Seed having a mass of 1 kg of wheat (variety: Apache) was mixed into 100 ml of suspension water containing from 0.5 g or 5 g of the 3,4-dichloroisothiazole derivative of the compound (6) or (3) (synthesis was performed in accordance with a known method, formulated 10% wettable powder was used) and air-dried, and then, 12 seeds were sown in a plastic cup having a diameter of 6 cm containing river sand and managed in a greenhouse. The number of emerged seeds was investigated 12 days after seeding, and an emergence rate was calculated. In Comparative Examples 19 to 22, 20 ml of suspension water of an active ingredient, which had been adjusted to have a concentration shown in Table 9, was sprayed in a frame of 45 cm×45 cm in which a pot of wheat seedlings was placed (corresponding to 1000 L/ha) 12 days after seeding. A spore suspension in which conidiospores of septoria leaf blotch are suspended were sprayed and inoculated on leaves of wheat seedlings 12 days after seeding (after the sprayed liquid was dried in the case of Comparative Examples), a lesion area ratio of septoria leaf blotch in a second leaf was investigated 31 days after seeding according to the criteria in Table 1, and the degree of disease occurrence was calculated by the above calculation formula (1)."}, "powdery mildew [1]": {"tested_on": "powdery mildew", "experiment": "Test Example 5: control test of wheat powdery mildew, field, wheat variety Haruyutaka", "format": "in vivo, Blumeria graminis", "conditions": "for Degree of Disease Occurrence / Disease Leaf Rate (%): leaves just below flag leaves, 85 days after seeding", "experimental": "(§1) Degree of Disease Occurrence=Σ(Index×Number of Leaves of Index)/(4×Number of Investigated Leaves)×100 (1)\nSeed of wheat (variety: Haruyutaka) sterilized in advance with commercial Benlate T wettable powder 20 (“Benlate” is a registered trademark) was used. In Examples 12, 13, and 14, seed having a mass of 1 kg was mixed into 50 ml of suspension water containing 2.5 g or 1.25 g of dichlobentiazox or 50 ml of suspension water containing 2.5 g of isotianil, air-dried, and then, stripe-sown in a field with a furrow width of 30 cm and a ratio of 100 kg/ha (300 seeds/m^2). Moreover, in Comparative Example 14, seed having a mass of 1 kg was mixed into 50 ml of suspension water containing 2.5 g of tiadinil (commercial V-GET flowable was used, “V-GET” is a registered trademark), air-dried, and then, stripe-sown in a field with a furrow width of 30 cm and a ratio of 100 kg/ha (300 seeds/m^2). The presence or absence of disease occurrence and a lesion area ratio of powdery mildew in leaves just below hag leaves (next leaves) of 30 stems were investigated 85 days after seeding by according to the criteria in Table 1, and a disease leaf rate and the degree of disease occurrence were calculated by the above calculation formula(1)."}, "[2]": {"tested_on": "wheat (variety: Haruyutaka)", "experiment": "Test Example 6: evaluation test of shortening of wheat (culm length, seed yield), field", "format": "in vivo"}, "[3]": {"tested_on": "wheat (variety: Norin No. 61)", "experiment": "Test Example 2: emergence rate of treated wheat seed", "format": "in vivo", "conditions": "10 days after seeding", "experimental": "(§2) Seed having a mass of 1 kg of wheat (variety: Norin No. 61) was mixed into 100 ml of suspension water containing 5 g or 0.5 g of dichlobentiazox or isotianil (commercial Routine flowable was used, “Routine” is a registered trademark) and air-dried, and then, 15 seeds were sown in a plastic pot of 9 cm×9 cm containing horticultural soil and managed in a greenhouse. The number of emerged seeds was investigated 10 days after seeding, and an emergence rate was calculated (Examples 2 to 5). On day 49 after seeding, conidiospores of powdery mildew were sifted over leaves of wheat seedlings and inoculated onto the leaves, a lesion area ratio of powdery mildew in a first leaf was investigated 59 days after seeding according to the criteria in Table 1, and the degree of disease occurrence was calculated by the above calculation formula (1)."}, "[4]": {"tested_on": "wheat (variety: Norin No. 61)", "experiment": "Test Example 3: emergence rate of wheat seed", "format": "in vivo", "experimental": "Seed having a mass of 1 kg of wheat (variety: Norin No. 61) was mixed into 100 ml of suspension water containing 5 g or 0.5 g of dichlobentiazox or isotianil and air-dried, and then, 12 seeds were sown in a plastic cup having a diameter of 6 cm containing river sand and managed in a greenhouse. The number of emerged seeds was investigated nine days after seeding, and an emergence rate was calculated (Examples 6 to 9). In Comparative Examples 6 to 9, 20 ml of suspension water of an active ingredient, which had been adjusted to have a concentration shown in Table 4, was sprayed in a frame of 45 cm×45 cm in which a pot of wheat seedlings was placed (corresponding to 1000 L/ha) 14 days after seeding. On day 14 after seeding, conidiospores of powdery mildew were sifted over leaves of wheat seedlings and inoculated onto the leaves (after the sprayed liquid was dried in the case of Comparative Examples), a lesion area ratio of powdery mildew in a first leaf was investigated 19 days after seeding according to the criteria in Table 1, and the degree of disease occurrence was calculated by the above calculation formula (1)."}, "powdery mildew [5]": {"tested_on": "powdery mildew", "experiment": "Test Example 2: control test of wheat powdery mildew, pot in greenhouse, inoculated, wheat variety Norin No. 61", "format": "in vivo, Blumeria graminis", "conditions": "for Degree of Disease Occurrence: inoculated day 49, first leaf, 59 days after seeding", "experimental": "as §1, §2"}, "[6]": {"conditions": "Foliage Treatment group, spray 50 ppm (50 g/ha) 12 days after seeding, emergence counted 12 days after seeding"}, "[7]": {"conditions": "Foliage Treatment group, spray 500 ppm (500 g/ha) 12 days after seeding, emergence counted 12 days after seeding"}, "[8]": {"conditions": "Seed Treatment 0.5 g/Seed 1 kg, 12 days after seeding"}, "[9]": {"conditions": "Seed Treatment 5 g/Seed 1 kg (500 g/ha), 12 days after seeding"}, "[10]": {"conditions": "Seed Treatment 1.25 g/Seed 1 kg (printed: 250 g/ha)"}, "[11]": {"conditions": "Seed Treatment 2.5 g/Seed 1 kg (250 g/ha)"}, "[12]": {"conditions": "Seed Treatment 0.5 g/Seed 1 kg (50 g/ha)"}, "[13]": {"conditions": "Seed Treatment 5 g/Seed 1 kg (500 g/ha)"}}, "data": [{"molecule": "O=C(O)c1snc(Cl)c1Cl", "note": "[Compound (6)]", "values": [{"measurement": "Emergence Rate (%)", "setting": "wheat (variety: Apache); [6]", "result": 97.2, "unit": "%"}, {"measurement": "Emergence Rate (%)", "setting": "wheat (variety: Apache); [7]", "result": 94.4, "unit": "%"}, {"measurement": "Emergence Rate (%)", "setting": "wheat (variety: Apache); [8]", "result": 88.9, "unit": "%"}, {"measurement": "Emergence Rate (%)", "setting": "wheat (variety: Apache); [9]", "result": 88.9, "unit": "%"}]}, {"molecule": "OCc1snc(Cl)c1Cl", "note": "[Compound (3)]", "values": [{"measurement": "Emergence Rate (%)", "setting": "wheat (variety: Apache); [6]", "result": 97.2, "unit": "%"}, {"measurement": "Emergence Rate (%)", "setting": "wheat (variety: Apache); [7]", "result": 97.2, "unit": "%"}, {"measurement": "Emergence Rate (%)", "setting": "wheat (variety: Apache); [8]", "result": 97.2, "unit": "%"}, {"measurement": "Emergence Rate (%)", "setting": "wheat (variety: Apache); [9]", "result": 86.1, "unit": "%"}]}, {"molecule": "O=S1(=O)N=C(OCc2snc(Cl)c2Cl)c2ccccc21", "note": "[Compound (1), Dichlobentiazox]", "values": [{"measurement": "Degree of Disease Occurrence", "setting": "powdery mildew [1]; [10]", "result": 0.8}, {"measurement": "Disease Leaf Rate (%)", "setting": "powdery mildew [1]; [10]", "result": 4.4, "unit": "%"}, {"measurement": "Degree of Disease Occurrence", "setting": "powdery mildew [1]; [11]", "result": 0.4}, {"measurement": "Disease Leaf Rate (%)", "setting": "powdery mildew [1]; [11]", "result": 2.2, "unit": "%"}, {"measurement": "disease occurrence of powdery mildew, seed treatment compared with seed treatment with tiadinil", "setting": "powdery mildew [1]; seed treatment", "result": "suppresses the disease occurrence of powdery mildew lower"}, {"measurement": "Culm Length (cm)", "setting": "[2]; Dichlobentiazox Seed Treatment 5 g/Seed 1 kg plus Propiconazole foliage spray 120 g/ha four times, harvested 106 days after seeding", "result": 80.1, "unit": "cm"}, {"measurement": "Seed Yield", "setting": "[2]; Dichlobentiazox Seed Treatment 5 g/Seed 1 kg plus Propiconazole foliage spray 120 g/ha four times, wheat in 3 m2, 106 days after seeding", "result": 1015, "unit": "g"}, {"measurement": "culm length in harvesting time, compared with no seed treatment", "setting": "[2]; seed treatment", "result": "slightly shorter"}, {"measurement": "yield amount of wheat grains, compared with no seed treatment", "setting": "[2]; seed treatment", "result": "slightly higher"}, {"measurement": "Emergence Rate (%)", "setting": "[3]; [12]", "result": 100, "unit": "%"}, {"measurement": "Emergence Rate (%)", "setting": "[3]; [13]", "result": 96, "unit": "%"}, {"measurement": "Emergence Rate (%)", "setting": "[4]; Foliage Treatment group, spray 50 ppm (50 g/ha) 14 days after seeding, emergence counted nine days after seeding", "result": 100, "unit": "%"}, {"measurement": "Emergence Rate (%)", "setting": "[4]; Foliage Treatment group, spray 500 ppm (500 g/ha) 14 days after seeding, emergence counted nine days after seeding", "result": 97, "unit": "%"}, {"measurement": "Emergence Rate (%)", "setting": "[4]; Seed Treatment 0.5 g/Seed 1 kg (50 g/ha), nine days after seeding", "result": 97, "unit": "%"}, {"measurement": "Emergence Rate (%)", "setting": "[4]; Seed Treatment 5 g/Seed 1 kg (500 g/ha), nine days after seeding", "result": 100, "unit": "%"}, {"measurement": "Degree of Disease Occurrence", "setting": "powdery mildew [5]; [12]", "result": 10.7}, {"measurement": "Degree of Disease Occurrence", "setting": "powdery mildew [5]; [13]", "result": 0.0}, {"measurement": "disease occurrence under artificial inoculation of powdery mildew", "setting": "powdery mildew [5]; seed treatment", "result": "the disease occurrence was suppressed"}]}]}
